Experimental data from paper PMC8673480 (Journal of medicinal chemistry, 2021).

Assays:
SARS-CoV-2 3CLpro = SARS-CoV-2 3CLpro (Severe acute respiratory syndrome coronavirus 2, UniProt P0DTD1); experiment: biochemical; assay type: biochemical
[1] = Nonspecific cytotoxic effects / in vitro cytotoxicity; assay type: cell-based; conditions: human, HEK293T cells
MERS-CoV 3CLpro = MERS-CoV 3CLpro (Middle East respiratory syndrome-related coronavirus, UniProt K9N7C7); experiment: biochemical
PRRSV = experiment: Inhibition of replication of PRRSV; assay type: cell-based, porcine respiratory and reproductive syndrome virus (PRRSV)

MERS-CoV 3CLpro, sequence (K9N7C7 3248-3553 limits assumed): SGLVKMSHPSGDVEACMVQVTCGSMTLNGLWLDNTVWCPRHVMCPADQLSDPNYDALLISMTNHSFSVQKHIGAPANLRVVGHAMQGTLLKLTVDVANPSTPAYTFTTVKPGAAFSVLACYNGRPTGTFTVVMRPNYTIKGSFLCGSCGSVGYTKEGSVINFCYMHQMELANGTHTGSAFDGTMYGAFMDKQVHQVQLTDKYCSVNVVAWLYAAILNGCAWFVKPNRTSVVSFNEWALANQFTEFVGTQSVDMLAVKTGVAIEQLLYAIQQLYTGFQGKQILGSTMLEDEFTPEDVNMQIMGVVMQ

**Q.** Which IC50 (SARS-CoV-2 3CLpro) does the source give for `CCCC1CCC(COC(=O)NC(CC(C)C)C(=O)NC(C=O)CC2CCNC2=O)CC1` [Compound 8b, ((1r,4R)-4-Propylcyclohexyl) methyl ((2S)-4-methyl-1-oxo-1-(((2S)-1-oxo-3-(2-oxopyrrolidin-3-yl)propan-2-yl)amino)pentan-2-yl) carbamate] here?
**A.** 200 ± 30 nM

**Q.** What about the CC50 at 72 h [1] of the same compound?
**A.** 43 ± 9 µM

**Q.** What about the IC50 (MERS-CoV 3CLpro) of the same compound?
**A.** 60 ± 10 nM

**Q.** With `CC(C)C[C@H](NC(=O)OCc1ccccc1)C(=O)N[C@@H](C[C@@H]1CCNC1=O)C(O)S(=O)(=O)[O-].[Na+]` (some centres unmarked) [GC376] as the compound, how does the “inhibition of the replication of PRRSV” value (PRRSV) read?
**A.** none of them resulted in the reduction of viral replication

**Q.** Which “IC50 higher than those of 12b and 14c” value (SARS-CoV-2 3CLpro) does the source give for `CC(C)C[C@H](NC(=O)OC(C)(C)C1CCC(F)(F)CC1)C(=O)N[C@@H](C[C@@H]1CCNC1=O)C(O)S(=O)(=O)[O-].[Na+]` (stereo partly drawn) [Compound 13c, Sodium (2S)-2-((S)-2-((((2-(4,4-difluorocyclohexyl)propan-2-yl)oxy)carbonyl)amino)-4-methylpentanamido)-1-hydroxy-3-((S)-2-oxopyrrolidin-3-yl)propane-1-sulfonate] here?
**A.** ~ 4 fold
